# Measured values as given in paper PMC10384408, “Anticancer Tungstenocenes with a Diverse Set of (O,O–), (O,S–) and (O,N–) Chelates—A Detailed Biological Study Using an Improved Evaluation via 3D Spheroid Models” (Pharmaceutics, 2023).
# Key:
# [1] = tested on: HCT116 multicellular tumor spheroids; test: Resazurin assay, HCT116 3D spheroids; format: cell-based, human; details: 96 h; for IC50: spheroids
# Description: CH1/PA-1 (ovarian teratocarcinoma), SW480 (colon carcinoma) and A549 (non-small cell lung cancer) cells were maintained as described in the reference. IMR-90 human fetal lung fibroblasts (from the European Collection of Authenticated Cell Cultures, Porton Down, Salisbury, UK) were cultured in Stable Cell^TM DMEM/F12 supplemented with 0.01 mg/mL human recombinant insulin (both purchased from Sigma-Aldrich) and 10% fetal bovine serum (FBS, BioWest, Nuaillé, France). Human colon carcinoma cell lines HCT116 and HT29 (both kindly provided by the Institute of Cancer Research, Department of Medicine I, Medical University of Vienna, Austria) were cultured in McCoy’s 5a medium supplemented with 4 mM L-glutamine (both purchased from Sigma-Aldrich) and 10% FBS. MCF-7 human breast adenocarcinoma cells (kindly provided by M. Ogris, Department of Pharmaceutical Sciences, University of Vienna, Austria) were maintained in DMEM (high glucose) supplemented with 4 mM L-glutamine, 0.1 mg/mL human insulin (all purchased from Sigma-Aldrich) and 10% FBS. All cell lines were grown as monolayers in 75 cm^2 culture flasks (CytoOne, Starlab, Hamburg, Germany) at 37 °C in a humidified atmosphere containing 5% CO2.
# For growing multicellular tumor spheroids, 400 HCT116, 400 HT29 or 800 MCF-7 cells per well were plated into round-bottom ultra-low attachment 96-well plates (Corning, Glendale, AZ, USA) in the media described above and incubated at 37 °C for 96 h. Spheroids were treated with 10 µM of the two most cytotoxic compounds 3 and 4 for another 96 h. The diameters of the spheroids were measured with Cell^F software under a CKX41 Olympus microscope before treatment and in constant daily intervals over the 96 h treatment period. For statistical analysis the t-test with Welsh’s correction was implemented in GraphPad Prism software (Version 6.01).
# For the resazurin assay in monolayer cultures, cells were seeded into 96-well microculture plates (CytoOne, tissue culture treated, Starlab, Hamburg, Germany) in densities of 2 × 10^3 HCT116, 2 × 10^3 HT29 and 4 × 10^3 MCF-7 cells per well (each in 100 µL). For tests in 3D cultures, spheroids were grown as described above. After 24 h (for monolayers) or 4 days (for spheroids) the test compounds in the appropriate medium were added in serial dilution to the plates to obtain a total volume of 200 µL/well. Wells without cells, containing medium and resazurin (Alfa Aesar, Thermo Fisher, Kandel, Germany) solution were used as blanks. After 96 h exposure 20 µL of the resazurin solution (440 µM) were added to each well, followed by a 4 h (2D) or 12 h (3D) incubation period. Resorufin fluorescence was quantified at 530 nm (and a reference wavelength of 620 nm) by using a microplate reader (Synergy HT, BioTek) with Gen5^TM 3.10 software (BioTek).
# [2] = Cyclic voltammetry in MeCN (W(IV) to W(V)); format: physicochemical; details: vs. NHE, scan rate 200 mV/s
# Description: NMR spectra were recorded with a Bruker FT-NMR Avance III^TM 500 MHz spectrometer at 500.10 (^1H), and 125.75 MHz (^13C) using DMSO–d6. 2D-NMR measurements were recorded utilizing standard pulse programs COSY, HSQC and HMBC. The Microanalytical Laboratory of the University of Vienna performed the elemental analyses with a Eurovector EA 3000(2009) equipped with a high temperature pyrolysis furnace (HT, Hekatech, Germany, 2009). Elemental analyses’ samples were weighed (weights from 1–3 mg were used) on a Sartorius SEC 2 ultra-micro balance with ±0.1 µg resolution. Two NIST-certified reference materials were used for calibration: sulfanilamide (C6H8N2O2S) and BBOT (2,5-bis-(5-tert-butyl-2-benzoxazol-2-yl)-thiophenone, C26H26N2O2S). The limit of quantification (LOQ) was 0.05 w% for C, H, N and 0.02 w% for S. For samples without N and/or S, the content of these elements was determined and verified to be below the LOQ. X-ray diffraction analyses were carried out on a Bruker X8 APEX II CCD diffractometer at 100 K. ESI-MS were recorded on a Bruker AmaZon SL ion trap mass spectrometer (Bruker Daltonics GmbH). Data were obtained and processed with Compass 1.3 and Data Analysis 4.0 (Bruker Daltonics GmbH). Infrared spectra were attained on a Bruker Vertex 70 FT-IR-spectrometer with an ATR-unit (attenuated total reflection unit) in the range of 4000–600 cm^−1. Intensities of the reported bands are described with w for weak, m for medium and s for strong; broad signals are additionally specified with the letter b in front of these abbreviations. Cyclic voltammograms (CVs) were measured in a three-electrode cell using 2 mm diameter glassy carbon disk working electrode, a platinum auxiliary electrode and an Ag|Ag^+ reference electrode containing 0.1 M AgNO3. Measurements were carried out at room temperature using an EG&G PARC potentiostat/galvanostat 273A. The solutions were deoxygenized by purging a stream of argon for 3 min through the solution and the experiment was performed under an argon atmosphere. The potentials were measured in a freshly prepared solution of (n Bu4N)[BF4] (0.1 M) in acetonitrile using ferrocene (Fe(η^5-C5H5)2) (E1/2 = +0.72 V vs. NHE) as an internal standard and are quoted relative to the normal hydrogen electrode (NHE).
# The electrochemical behavior of all complexes and the precursor Cp2WCl2 was studied by cyclic voltammetry with a scan rate of 200 mV/s, from −0.5 to +1.2 or +1.5 V. Measurements were performed in triplicate. Due to low water solubility of compounds 1–10 acetonitrile (MeCN) was utilized in order to reach the 2 mM concentration.
# HCT116 cells = test: Annexin V-FITC/PI apoptosis assay, HCT116; format: cell-based, human; details: HCT116, 24 h; for ∑apoptotic cells [%]: sum of early and late
SMILES,"ratio 3D/2D of IC50 values, HCT116 [1]",IC50 [1] [µM],E1/2 [2] [V],early apoptotic cells [%] AV+ / PI- (HCT116 cells; 200 µM) [%],late apoptotic cells [%] AV+ / PI+ (HCT116 cells; 200 µM) [%],necrotic cells [%] AV- / PI+ (HCT116 cells; 200 µM) [%],viable cells [%] AV- / PI- (HCT116 cells; 200 µM) [%],∑apoptotic cells [%] (HCT116 cells; 200 µM),other results
"Cc1occc(=S)c1[O-].F[P-](F)(F)(F)(F)F.[W+4].c1cc[cH-]c1.c1cc[cH-]c1 [Compound 2, Bis(η^5-cyclopentadienyl)[2-methyl-3-(oxo-κO)-4-(1H)-pyran-4-thionato-κS]tungsten(IV) hexafluorophosphate]",1.6,158 ± 28,1.047,7.2 ± 1.9,27.1 ± 17.6,2.2 ± 0.2,63.5 ± 18.6,–,–
"F[P-](F)(F)(F)(F)F.O=c1c([O-])c(-c2ccc(Cl)cc2)oc2ccccc12.[W+4].c1cc[cH-]c1.c1cc[cH-]c1 [Compound 3, Bis(η^5-cyclopentadienyl)[2-(4-chlorophenyl)-3-(oxo-κO)-4(H)-chromen-4-oato-κO]tungsten(IV) hexafluorophosphate]",2.3,21 ± 4,1.059,0.0 ± 0.0,94.1 ± 4.8,5.5 ± 4.9,0.4 ± 0.3,–,early apoptotic cells [%] AV+ / PI- (HCT116 cells; 2 µM): 4.6 ± 1.7%; late apoptotic cells [%] AV+ / PI+ (HCT116 cells; 2 µM): 13.5 ± 0.6%; necrotic cells [%] AV- / PI+ (HCT116 cells; 2 µM): 4.3 ± 0.7%; viable cells [%] AV- / PI- (HCT116 cells; 2 µM): 77.7 ± 1.6%; ∑apoptotic cells [%] (HCT116 cells; 2 µM): 18.1%; early apoptotic cells [%] AV+ / PI- (HCT116 cells; 20 µM): 5.0 ± 0.9%; late apoptotic cells [%] AV+ / PI+ (HCT116 cells; 20 µM): 12.1 ± 2.9%; necrotic cells [%] AV- / PI+ (HCT116 cells; 20 µM): 2.5 ± 0.6%; viable cells [%] AV- / PI- (HCT116 cells; 20 µM): 80.4 ± 2.6%; ∑apoptotic cells [%] (HCT116 cells; 20 µM): 17.1%; early apoptotic cells [%] AV+ / PI- (HCT116 cells; 100 µM): 3.3 ± 1.1%; late apoptotic cells [%] AV+ / PI+ (HCT116 cells; 100 µM): 75.5 ± 5.6%; necrotic cells [%] AV- / PI+ (HCT116 cells; 100 µM): 12.8 ± 0.2%; viable cells [%] AV- / PI- (HCT116 cells; 100 µM): 8.6 ± 4.3%; ∑apoptotic cells [%] (HCT116 cells; 100 µM): 78.8%
"F[P-](F)(F)(F)(F)F.[O-]c1c(-c2ccc(Cl)cc2)oc2ccccc2c1=S.[W+4].c1cc[cH-]c1.c1cc[cH-]c1 [Compound 4, Bis(η^5-cyclopentadienyl)[2-(4-chlorophenyl)-3-(oxo-κO)-4(H)-chromen-4-thionato-κS]tungsten(IV) hexafluorophosphate]",2.5,15 ± 4,1.082,–,–,–,–,–,early apoptotic cells [%] AV+ / PI- (HCT116 cells; 2 µM): 2.3 ± 0.0%; late apoptotic cells [%] AV+ / PI+ (HCT116 cells; 2 µM): 8.0 ± 6.2%; necrotic cells [%] AV- / PI+ (HCT116 cells; 2 µM): 2.4 ± 1.5%; viable cells [%] AV- / PI- (HCT116 cells; 2 µM): 87.3 ± 7.8%; ∑apoptotic cells [%] (HCT116 cells; 2 µM): 10.3%; early apoptotic cells [%] AV+ / PI- (HCT116 cells; 20 µM): 1.9 ± 0.4%; late apoptotic cells [%] AV+ / PI+ (HCT116 cells; 20 µM): 31.1 ± 4.7%; necrotic cells [%] AV- / PI+ (HCT116 cells; 20 µM): 11.5 ± 1.2%; viable cells [%] AV- / PI- (HCT116 cells; 20 µM): 55.5 ± 4.8%
"F[P-](F)(F)(F)(F)F.O=C([O-])c1ccccn1.[W+4].c1cc[cH-]c1.c1cc[cH-]c1 [Compound 5, Bis(η^5-cyclopentadienyl)[2-(carboxylato-κO)-pyridine-κN]tungsten(IV) hexafluorophosphate]",–,> 200,1.330,2.0 ± 1.1,2.9 ± 0.7,2.4 ± 1.2,92.7 ± 1.3,4.9,–
"Cc1c([O-])c(=O)ccn1C.F[P-](F)(F)(F)(F)F.[W+4].c1cc[cH-]c1.c1cc[cH-]c1 [Compound 6, Bis(η^5-cyclopentadienyl)[1,2-dimethyl-3-(oxo-κO)-4-(1H)-pyridonato-κO]tungsten(IV) hexafluorophosphate]",–,> 200,0.885,5.0 ± 1.3,17.2 ± 122,3.1 ± 0.7,74.7 ± 14.1,22.2,–
"Cc1cc(=O)c([O-])co1.F[P-](F)(F)(F)(F)F.[W+4].c1cc[cH-]c1.c1cc[cH-]c1 [Compound 7, Bis(η^5-cyclopentadienyl)[2-methyl-5-(oxo-κO)-4-(1H)-pyran-4-ato-κO] tungsten(IV) hexafluorophosphate]",–,> 200,1.071,4.5 ± 1.8,13.7 ± 8.2,3.6 ± 0.9,78.2 ± 9.3,18.2,–
"Cc1cc(=S)c([O-])co1.F[P-](F)(F)(F)(F)F.[W+4].c1cc[cH-]c1.c1cc[cH-]c1 [Compound 8, Bis(η^5-cyclopentadienyl)[2-methyl-5-(oxo-κO)-pyran-4-(1H)-thionato-κS] tungsten(IV) hexafluorophosphate]",–,178 ± 14,1.080,5.5 ± 2.0,12.4 ± 2.4,2.8 ± 1.3,79.4 ± 3.5,17.9,–
"CCc1occc(=O)c1[O-].F[P-](F)(F)(F)(F)F.[W+4].c1cc[cH-]c1.c1cc[cH-]c1 [Compound 9, Bis(η^5-cyclopentadienyl)[2-ethyl-3-(oxo-κO)-4-(1H)-pyran-4-ato-κO] tungsten(IV) hexafluorophosphate]",–,> 200,1.038,1.5 ± 0.8,2.3 ± 0.3,2.3 ± 0.4,93.9 ± 0.5,3.8,–
"CCc1occc(=S)c1[O-].F[P-](F)(F)(F)(F)F.[W+4].c1cc[cH-]c1.c1cc[cH-]c1 [Compound 10, Bis(η^5-cyclopentadienyl)[2-ethyl-3-(oxo-κO)-4-(1H)-pyran-4-thionato-κS] tungsten(IV) hexafluorophosphate]",1.6,69 ± 12,1.064,3.8 ± 3.2,4.3 ± 3.6,2.4 ± 0.7,89.6 ± 7.5,8.0,–
